Results from patent US10538520B2, “Benzamide and nicotinamide compounds and methods of using same” (OncoTartis Inc., priority 2013, dated 2020).

Legend:
MV4-11 = assay: Cytotoxicity towards MV4-11 cell line; assay type: cell-based; conditions: Homo sapiens
Protocol: (§1) In various embodiments, the compounds of the disclosure are those in which show IC50 values in cytotoxicity experiments towards cells lines MV4-11 and U937 of >20 μM, 10-20 μM, 5-10 μM, 1-5 μM, or <1 μM.
(§2) The IC50 is divided into 5 categories: A<1 μM, B 1-5 μM, C 5-10 μM, D 10-20 μM, and E>20 μM.

U-937 = assay: Cytotoxicity towards U-937 cell line; assay type: cell-based; conditions: Homo sapiens
Protocol: as §1, §2

| Compound | IC50 (MV4-11) [nM] | IC50 (U-937) [nM] |
| --- | --- | --- |
| Cn1cnc(CNC(=O)c2ccc(-n3cccn3)c(C#Cc3ccccc3)c2)c1 [TT-02721] | > 20000 | > 20000 |
| O=C(NCCCn1ccnc1)c1ccc(N2CCOCC2)c(C#Cc2ccccc2)c1 [TT-03261] | < 1000 | < 1000 |
| CNC(=O)c1cccc(C#Cc2cc(C(=O)NCCCc3cn[nH]c3)ccc2-n2cccn2)c1 [TT-03359] | < 1000 | < 1000 |
| CN(C)c1ccc(C(=O)NCCCc2cn[nH]c2)cc1C#Cc1ccccc1 [TT-03242] | < 1000 | < 1000 |
| Cc1nn(-c2ccc(C(=O)NCCc3cnccn3)cc2C#Cc2ccccc2)c(C)c1C [TT-02942] | > 20000 | 5000 to 10000 |
| C#Cc1cc(C(=O)NCCCc2cn[nH]c2)ccc1-n1cccn1 [TT-03337] | 10000 to 20000 | > 20000 |
| O=C(NCCc1c[nH]cn1)c1ccc(-n2cccn2)c(C#Cc2ccccc2)c1 [TT-02686] | 5000 to 10000 | 10000 to 20000 |
| O=C(NCCCc1cn[nH]c1)c1ccc(-n2cccn2)c(C#CC2(O)CCCCC2)c1 [TT-03351] | 5000 to 10000 | 5000 to 10000 |
| CC1CN(c2ncc(C(=O)NCCCc3cn[nH]c3)cc2C#Cc2ccc(F)cc2)CCN1C(=O)OC(C)(C)C (centres unmarked) [TT-03772] | < 1000 | – |
| O=C(NCCCn1ccnc1)c1ccc(-n2cccn2)c(C#Cc2ccc(Cl)cc2)c1 [TT-03221] | < 1000 | < 1000 |
| Cc1cccc(C#Cc2cc(C(=O)NCCCc3cn[nH]c3)ccc2-n2cccn2)c1 [TT-03328] | < 1000 | < 1000 |
| O=C(NCCCc1cn[nH]c1)c1ccc(-c2cc[n+]([O-])cc2)c(C#Cc2ccc(F)cc2)c1 [TT-03773] | < 1000 | < 1000 |
| O=C(NCCCc1cn[nH]c1)c1ccc(-n2cnnc2)c(C#Cc2ccccc2)c1 [TT-03237] | > 20000 | > 20000 |
| O=C(NCCCc1cn[nH]c1)c1ccc(-n2cccn2)c(C#Cc2ccncc2)c1 [TT-03304] | < 1000 | < 1000 |
| O=C(NCCCc1cn[nH]c1)c1ccc(Oc2ccccc2)c(C#Cc2ccccc2)c1 [TT-03233] | < 1000 | < 1000 |
| O=C(NCCCc1cn[nH]c1)c1ccc(-c2cccnc2)c(C#Cc2ccccc2)c1 [TT-03245] | < 1000 | < 1000 |
| O=C(NCCCn1ccnc1)c1ccc(N2CCCC2)c(C#Cc2ccccc2)c1 [TT-02683] | < 1000 | < 1000 |
| C[C@@H]1CN(c2ccc(C(=O)NC/C=C/c3cn[nH]c3)cc2C#Cc2ccc(F)cc2)C[C@H](C)O1 [TT-03718] | < 1000 | < 1000 |
| CC(CNC(=O)c1ccc(-n2cccn2)c(C#Cc2cccnc2)c1)n1cncn1 (centres unmarked) [TT-02933] | > 20000 | > 20000 |
| Cc1nonc1CN(C)C(=O)c1ccc(-n2cccn2)c(C#Cc2ccccc2)c1 [TT-02800] | 10000 to 20000 | 1000 to 5000 |
| O=C(NCCCc1cn[nH]c1)c1ccc(-n2cccn2)c(C#Cc2ccccc2)c1 [TT-02715] | < 1000 | < 1000 |
| O=C(NCCCc1cn[nH]c1)c1ccc(-n2cccn2)c(C#Cc2cccc(C(F)(F)F)c2)c1 [TT-03332] | < 1000 | < 1000 |
| O=C(NCCCn1ccnc1)c1ccc(CN2CCc3ccccc3C2)cc1 [TT-01902] | 10000 to 20000 | 5000 to 10000 |
| O=C(NCCCc1cn[nH]c1)c1ccc(N2CCCCCC2)c(C#Cc2ccc(F)cc2)c1 [TT-03589] | < 1000 | < 1000 |
| O=C(NCCn1ccnc1)c1ccc(-n2cccn2)c(C#Cc2ccccc2)c1 [TT-02694] | > 20000 | < 1000 |
| CC1CC(C)CN(c2ncc(C(=O)NCCCc3cn[nH]c3)cc2C#Cc2ccc(F)cc2)C1 (centres unmarked) [TT-03761] | < 1000 | – |

| Compound | IC50 (MV4-11) [nM] | IC50 (U-937) [nM] |
| --- | --- | --- |
| O=C(NCCCc1cn[nH]c1)c1ccc(N2CCOCC2)c(C#Cc2ccccc2)c1 [TT-03232] | < 1000 | < 1000 |
| Cc1ccc(C#Cc2cc(C(=O)NCCCc3cn[nH]c3)ccc2-n2cccn2)cc1 [TT-03201] | < 1000 | < 1000 |
| COc1cccc(C#Cc2cc(C(=O)NCCCc3cn[nH]c3)ccc2-n2cccn2)c1 [TT-03308] | < 1000 | < 1000 |
| CN1CCN(c2ccc(C(=O)NCCCc3cn[nH]c3)cc2C#Cc2ccc(F)cc2)CC1 [TT-03598] | < 1000 | < 1000 |
| O=C(NCCCn1ccnc1)c1ccc(-n2cccn2)c(C#Cc2cccc(Cl)c2)c1 [TT-02749] | < 1000 | < 1000 |
| CN(C)c1ccc(C(=O)NCCCn2ccnc2)cc1C#Cc1ccccc1 [TT-03252] | < 1000 | < 1000 |
| CC(C)(O)C#Cc1cc(C(=O)NCCCc2cn[nH]c2)ccc1-n1cccn1 [TT-03346] | 5000 to 10000 | > 20000 |
| O=C(NCCCn1ccnc1)c1ccc(-n2cccn2)c(C#Cc2cccc(F)c2)c1 [TT-03217] | < 1000 | < 1000 |
| O=C(NCCn1cncn1)c1ccc(-n2cccn2)c(C#Cc2ccccc2)c1 [TT-02804] | > 20000 | < 1000 |
| Cc1nccn1CCN(C)C(=O)c1ccc(-n2cccn2)c(C#Cc2ccccc2)c1 [TT-02797] | > 20000 | > 20000 |
| O=C(NCCN1CCCC1=O)c1ccc(-n2cccn2)c(C#Cc2ccccc2)c1 [TT-02929] | > 20000 | > 20000 |
| O=C(NCc1ccco1)c1ccc(-n2cccn2)c(C#Cc2cccnc2)c1 [TT-02931] | > 20000 | 10000 to 20000 |
| O=C(NCCCc1cn[nH]c1)c1ccc(-c2ccncc2)c(C#Cc2ccc(F)cc2)c1 [TT-03582] | < 1000 | < 1000 |
| Cc1nccn1CCCNC(=O)c1ccc(N2CCN(CCOCCOCCOCCN)CC2)c(C#Cc2ccc(F)cc2)c1 [TT-03749] | 1000 to 5000 | 10000 to 20000 |
| C[C@@H]1CN(c2ccc(C(=O)NCCCn3ccnc3)cc2C#Cc2ccc(F)cc2)C[C@H](C)O1 [TT-03727] | < 1000 | < 1000 |
| O=C(NCCCc1cn[nH]c1)c1ccc(N2CCOCC2)c(C#Cc2ccncc2)c1 [TT-03631] | < 1000 | < 1000 |
| O=C(NCc1ccco1)c1ccc(-n2cccn2)c(C#Cc2ccccn2)c1 [TT-02947] | > 20000 | < 1000 |
| O=C(NCCCc1cn[nH]c1)c1ccc(N2CCCCC2CCO)c(C#Cc2ccc(F)cc2)c1 (centres unmarked) [TT-03592] | < 1000 | < 1000 |
| O=C(NCCCN1CCCC1=O)c1ccc(-n2cccn2)c(C#Cc2cccnc2)c1 [TT-02937] | > 20000 | > 20000 |
| N#Cc1cccc(C#Cc2cc(C(=O)NCCCc3cn[nH]c3)ccc2-n2cccn2)c1 [TT-03357] | < 1000 | < 1000 |
| O=C(NCCCn1ccnc1)c1ccc(-n2cccn2)c(C#Cc2ccccc2F)c1 [TT-03225] | < 1000 | < 1000 |
| O=C(NCC(O)Cc1cn[nH]c1)c1cnc(N2CCOCC2)c(C#Cc2ccc(F)cc2)c1 (centres unmarked) [TT-03774] | < 1000 | 1000 to 5000 |
| O=C1CN(c2ncc(C(=O)NCCCc3cn[nH]c3)cc2C#Cc2ccc(F)cc2)CCN1 [TT-03768] | < 1000 | – |
| O=C(NCCCc1cn[nH]c1)c1cnc(N2CCOCC2)c(C#Cc2ccc(F)cc2)c1 [TT-03767] | < 1000 | – |
| CC1CN(c2ncc(C(=O)NCCCc3cn[nH]c3)cc2C#Cc2ccc(F)cc2)CCN1 (centres unmarked) [TT-03756] | < 1000 | – |
| COC1CCCN(c2ncc(C(=O)NCCCc3cn[nH]c3)cc2C#Cc2ccc(F)cc2)C1 (centres unmarked) [TT-03762] | < 1000 | – |
